Experimental data taken from EP3095787A1, “[…] ACTIVE COMPOUNDS AS DAG-LIPASE INHIBITORS” (Universiteit Leiden, priority 2015, dated 2016).
Entries after “also recorded” stand apart in the source; their conditions may differ.

Columns and labels:
CA1 pyramidal neurons = experiment: Depolarization-induced suppression of inhibition (DSI) in hippocampal slices, whole-cell voltage clamp; assay type: cell-based; conditions: 10 µM bath application, pre-incubated at least 30 min; mouse hippocampal slices
Source text: Experimental evidence, which supports a role of DAGL-α in short-term synaptic plasticity, has been obtained through the use of genetically engineered mice that constitutively lack DAGL-α. DSI was absent in these DAGL-α knock-out mice, but not in their DAGL-β knock-out counter parts.
Horizontal slices (300 µm) of the hippocampus were obtained from male C57BL/6 mice (Harlan, the Netherlands) aged 14-19 days postnatal. Experiments were approved by the animal welfare committee of the University of Amsterdam. […] Inhibitory postsynaptic currents (IPSCs) were evoked with a glass stimulus electrode (filled with ACSF) positioned in the stratum radiatum, close to the recorded neuron. […]
Stock solutions (10 mM) of LEI105 were made in dimethylsulfoxide (DMSO), which was diluted to the final concentration (10 µM) in ACSF. […] Control experiments were performed on neurons recorded in slices pre-incubated with and in the continuous presence of 0.1 % DMSO.
For each CA1 neuron IPSCs were evoked with 5 sec intervals during a 2-min baseline period, prior to the stimulus evoking depolarization-induced suppression of inhibition (DSI). The maximum amplitude of each IPSC was determined and the mean value of the IPCS amplitudes over this period was calculated and used to normalize the evoked synaptic response. […]

hDAGL-β = target: T1, hDAGL-β (Homo sapiens, UniProt Q8NCG7); experiment: Competitive ABPP with MB064 on membranes of hDAGL-β transfected HEK293 cells; assay type: biochemical; design: FLAG; expressed in transfected cells; host or cells: HEK293, membranes; conditions: n=3, read-out: pIC50 of hDAGL-β labeling (converted)
T1 sequence (Q8NCG7 1-672): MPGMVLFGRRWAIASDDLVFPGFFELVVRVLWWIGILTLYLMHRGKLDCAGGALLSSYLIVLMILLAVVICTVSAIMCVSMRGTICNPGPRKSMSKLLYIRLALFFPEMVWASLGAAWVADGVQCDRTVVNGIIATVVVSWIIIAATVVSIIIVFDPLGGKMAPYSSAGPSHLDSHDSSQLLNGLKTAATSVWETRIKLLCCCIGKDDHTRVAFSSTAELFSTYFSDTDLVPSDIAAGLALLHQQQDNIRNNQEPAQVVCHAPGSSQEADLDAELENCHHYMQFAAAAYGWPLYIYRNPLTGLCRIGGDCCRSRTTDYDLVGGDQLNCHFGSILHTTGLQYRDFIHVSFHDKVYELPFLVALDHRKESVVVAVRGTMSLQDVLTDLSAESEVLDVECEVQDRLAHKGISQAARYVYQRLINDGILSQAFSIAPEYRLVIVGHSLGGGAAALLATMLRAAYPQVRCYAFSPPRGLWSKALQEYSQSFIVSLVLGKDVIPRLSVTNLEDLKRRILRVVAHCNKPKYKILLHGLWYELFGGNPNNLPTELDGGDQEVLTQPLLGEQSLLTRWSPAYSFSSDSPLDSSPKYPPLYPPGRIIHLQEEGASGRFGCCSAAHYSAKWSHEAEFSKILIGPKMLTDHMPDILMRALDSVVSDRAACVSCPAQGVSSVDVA
Experimental: In view of the high homology between DAGL-α and DAGL-β the inventors assesed the activity of compound 25 also on native DAGL-β. To this end, it was tested whether the ABP probe MB064 was also able to label DAGL-β. MB064 was incubated with membranes from mock and hDAGL-β transfected HEK293 cells. MB064 was able to label a protein at the expected molecular weight of DAGL-β, which was not present in the control membranes, or in S443A-hDAGL-β transfected cells, in which the catalytic serine is replaced by alanine using site-directed mutagenesis (Figure 1 F). Thus, the tailor-made probe can also detect DAGL-β.

- IC50 (hDAGL-β): 39.8 nM
Structure (SMILES): Cc1ccc(-c2cnc3nc(C(=O)CCCCCc4ccccc4)oc3c2)cc1 [Compound 25, 1-(6-(p-Tolyl)oxazolo[4,5-b]pyridin-2-yl)-6-phenylhexan-1-one]
- DSI (CA1 pyramidal neurons): clear suppression of DSI; also recorded: DSI is reduced
